Experimental data reported in patent US12122848B2, “Compositions and methods for treating fibroids” (THE LUNDQUIST INSTITUTE FOR BIOMEDICAL INNOVATION AT …, priority 2020, dated 2024).
“Also recorded” adds a separate entry of the source.

Assays:
[1] = system: LSMC (leiomyoma smooth muscle cells) spheroids; assay: Cell proliferation in LSMC spheroids, CellTiter-Glo 3D Cell Viability Assay; format: cell-based, human
Description: (§1) Isolated MSMC and LSMC were plated in 6-well (1×10^5 cells/well) or 96-well (5×10^3 cells/well) plates which were coated with 0.5% agarose gel and incubated 48 hours for spheroids formation.
(§2) The concentrations of inhibitors used was based on earlier studies and the cell proliferation was determined using the CellTiter-Glo 3D Cell Viability Assay (Promega, Madison, WI) according to the manufacturer's protocol. The assay was performed in six replicates per condition and repeated four times using cells isolated from four different patients.

[2] = system: MSMC (myometrial smooth muscle cells) spheroids; assay: Cell proliferation in MSMC spheroids, CellTiter-Glo 3D Cell Viability Assay; format: cell-based, human
Description: as §1, §2

LSMC spheroids [3] = assay: Immunoblotting of ECM and inflammation proteins in LSMC spheroids after inhibitor treatment; format: cell-based, human
Description: Total protein isolated from paired tissue samples and MSMC and LSMC spheroids following treatment conditions was subjected to immunoblotting. Briefly, samples were suspended in RIPA buffer containing 1 mM EDTA and EGTA (Boston BioProducts, Ashland, MA) supplemented with 1 mM PMSF and a complete protease inhibitor mixture (Roche Diagnostics, Indianapolis, IN), sonicated, and centrifuged at 4° C. for 10 min at 14,000 rpm. The concentration of protein was determined using the BCA™ Protein Assay Kit (Thermo Scientific Pierce, Rockford, IL). Equal aliquots (thirty micrograms) of total protein for each sample was denatured with SDS-PAGE sample buffer and separated by electrophoresis on a SDS polyacrylamide gel. After transferring the samples to a nitrocellulose membrane, the membrane was blocked with TBS-Tween+5% milk and probed with the following primary antibodies: IDO1 (Cell Signaling Technology, Danvers, MA), TDO2, COL3A1 (Proteintech Group, Inc, Chicago, Illinois) and COL1A1 (Fitzgerald Industries Intl, Acton, MA). The membranes were washed with TBS containing 0.1% Tween-20 wash buffer after each antibody incubation cycle. SuperSignal West Pico Chemiluminescent Substrate™ (Thermo Scientific Pierce) was used for detection, and photographic emulsion was used to identify the protein bands, which were subsequently quantified by densitometry. The membranes were also stripped and probed with glyceraldehyde 3-phosphate dehydrogenase (GAPDH) antibody (Santa Cruz Biotechnology, Santa Cruz, CA) serving as the loading control. The densities of the specific protein bands were determined using image J program (imagej.nih.gov/ij/), normalized to GAPDH or a band obtained from staining the membrane with Ponceau S. Results were expressed as means±SEM as a ratio relative to the control group designated as 1.
as §1

leiomyoma explants [4] = assay: COL1A1 and COL3A1 in culture-conditioned media of leiomyoma explants; format: cell-based, human; settings: fresh leiomyoma explants, different doses, 48 hours, N=2
Description: FIG. 5A-F. (A) Representative images of COL1A1 and COL3A1 in culture-conditioned media of leiomyoma explants after treatment with different doses of TDO2 inhibitor, 680C91 for 48 hours (N=2). An equal volume of conditioned media was used, and a Ponceau S-stained protein band on the nitrocellulose membrane was used as a loading control. (B) The effect of DMSO (control) and E2+P4 (10^−8M each) after 48 hours of culture on the expression of IDO1 and TDO2 in LSMC spheroids (N=2). (C) Representative western blot analysis of TDO2 following transfection of LSMC spheroids with anti-miR-200c oligonucleotides for 96 hrs. […] (E-F) QRT-PCR analysis of TDO2 (E), miR-29c and miR-200c (F) in LSMC spheroids after transfection of siRNA negative control (siNC) or TDO2 siRNA oligonucleotides (siTDO2) for 96 hours (N=3). The results are presented as mean±SEM with P values (*:p<0.05) indicated by corresponding lines.
Using fresh leiomyoma explants, we confirmed that the expression of COL1A1 and COL3A1 was decreased in culture-conditioned media following treatment with different doses of TDO2 inhibitor, 680C91 (FIG. 5A).

leiomyoma explants [5] = assay: CYP1B1 expression in leiomyoma explants (AhR signaling marker); format: cell-based, human; settings: fresh leiomyoma explants, 48 hours; kynurenine 100 μM, tryptophan different doses (mM), 680C91 50 μM
leiomyoma explants [6] = assay: Preliminary experiment: leiomyoma explants implanted subcutaneously in ovariectomized CB-17 scid/beige mice; format: in vivo; settings: 8 mg/Kg daily via IP, 8 weeks
Description: This example also performed a preliminary experiment using freshly collected leiomyoma explants implanted subcutaneously on the flank of ovariectomized CB-17 scid/beige female mice (N=2), and treated with vehicle or TDO2 inhibitor (680C91; 8 mg/Kg daily via IP) for 8 weeks. After sacrifice, plasma was collected and analyzed for blood chemistry panel (Abaxis).

leiomyoma explants [7] = assay: In vivo experiment: leiomyoma explants implanted subcutaneously in ovariectomized CB-17 scid/beige mice; settings: 10 mg/Kg daily, i.p., 8 weeks
Description: FIG. 7A-E. (A) Representative of the gross appearance of leiomyoma specimens (arrow) implanted subcutaneously in CB-17 SCID/Beige female mice following 8 weeks treatment of vehicle (left) or TDO2 inhibitor (right; 680C91; 10 mg/Kg daily via IP). (B) The relative explants weight between vehicle and 680C91 treated group after 8 weeks treatment (n=6). The ratio of plasma kynurenine vs tryptophan levels was shown in (C). (D) QRT-PCR analysis of COL1A1, FN1, DNMT1 and CCND1 expression in explants (n=6) implanted subcutaneously after 8 weeks treatment of vehicle or TDO2 inhibitor. (E) Paraformaldehyde-fixed paraffin-embedded xenograft explants of vehicle (a) or TDO2 inhibitor (b) stained with Masson's Trichrome reagent. […] The results are presented as mean±SEM with P values (*:p<0.05) indicated by corresponding lines.
We also performed the in vivo experiment using freshly collected leiomyoma explants implanted subcutaneously in the flank of ovariectomized CB-17 scid/beige female mice (N=6), and treated with vehicle or TDO2 inhibitor (680C91; 10 mg/Kg daily, i.p.) for 8 weeks (FIG. 7A). After sacrifice, the explants weight was determined and the collected plasma was analyzed for levels of tryptophan, kynurenine and blood chemistry panel (Abaxis).

LSMC spheroids [8] = assay: Kynurenine treatment of LSMC spheroids, expression of AhR, IDO1, TDO2 and COL1A1; format: cell-based, human; settings: 100 μM, 72 hours, N=2
Description: FIG. 6A-D. (A) The relative (mean±SEM) expression of CYP1B1 in paired (N=43) myometrium (Myo) and leiomyoma (Lyo). (B) Representative images show the levels of AhR and ARNT in fresh subfractionated cytoplasmic (Cyto) and nuclear (Nu) phase from myometrium (Myo) and paired leiomyoma (Lyo) with Calpain 1 and Lamin B1 served as markers for the respective subcellular fractions (N=3). (C) Representative images of CYP1B1 in leiomyoma explants after treatment with kynurenine (100 μM), different doses of tryptophan (mM) and TDO2 inhibitor (680C91, 50 μM) for 48 hours with a Ponceau S-stained protein band on the nitrocellulose membrane used as a loading control (N=2). (D) The effect of kynurenine (KYN, 100 μM) treatment for 72 hours on the expression of AhR, IDO1, TDO2 and COL1A1 in LSMC spheroids (N=2). The results are presented as mean±SEM with P values (*:p<0.05) indicated by corresponding lines.
Using fresh leiomyoma explants we confirmed that the expression of CYP1B1 was increased by the treatment of kynurenine (Kyn) and tryptophan, while decreased following TDO2 inhibitor treatment (FIG. 6C).

[9] = Example 3, various concentrations, 48 hours, n=4
[10] = Example 2, different doses, 48 h
[11] = Example 3, 48 hours, different concentrations

`Fc1ccc2c(/C=C/c3cccnc3)c[nH]c2c1` [Compound 680C91, 6-Fluoro-3-[(1E)-2-(3-pyridinyl)ethenyl]-1H-indole] was tested, and the cell proliferation ([1]; Example 2) was “significantly suppressed”, the spheroids cell proliferation [1, 9] was “significantly inhibited; also recorded: significantly repressed” and the cell proliferation ([2]; Example 2) was “significantly suppressed”. The spheroids cell proliferation [2, 9] was “significantly repressed”, the “protein expression of COL3A1” value (LSMC spheroids [3]; [10]) was “down-regulated dose dependently” and the “protein expression of IKBKB” value (LSMC spheroids [3]; [10]) was “down-regulated dose dependently”. The “protein expression of fibronectin” value (LSMC spheroids [3]; [10]) was “down-regulated dose dependently”, the “expression of COL1A1” value (LSMC spheroids [3]; [11]) was “significantly reduced; also recorded: significantly repressed” and the “expression of COL3A1” value (LSMC spheroids [3]; [11]) was “significantly reduced; also recorded: significantly repressed”. For the same compound, the “expression of COL1A1 in culture-conditioned media” value (leiomyoma explants [4]) was “decreased”, the “expression of COL3A1 in culture-conditioned media” value (leiomyoma explants [4]) was “decreased” and the “expression of CYP1B1” value (leiomyoma explants [5]) was “decreased”. For the same compound, the TDO2 expression (leiomyoma explants [6]) was “down-regulated”, the “effects on body weight” value (leiomyoma explants [6]) was “no effects” and the “effects on food consumption” value (leiomyoma explants [6]) was “no effects”. For the same compound, the “expression of COL1A1” value (leiomyoma explants [6]) was “down-regulated”, the “expression of MyD88” value (leiomyoma explants [6]) was “down-regulated” and the “expression of TGF-β3” value (leiomyoma explants [6]) was “down-regulated”. For the same compound, the tumor size (leiomyoma explants [6]; N=2) was “reduced”, the “adverse effects on blood chemistry including liver and renal panels” value (leiomyoma explants [6]; plasma) was “no adverse effects” and the “effects on body weight” value (leiomyoma explants [7]) was “no effects”. The “effects on food consumption” value (leiomyoma explants [7]) was “no effects”, the explants weight (leiomyoma explants [7]; N=6) was “lower weight” and the “expression of CCND1” value (leiomyoma explants [7]; explants, QRT-PCR) was “down-regulated”. For the same compound, the “expression of COL1A1” value (leiomyoma explants [7]; explants, QRT-PCR) was “down-regulated”, the “expression of DNMT1” value (leiomyoma explants [7]; explants, QRT-PCR) was “down-regulated” and the “expression of FN1” value (leiomyoma explants [7]; explants, QRT-PCR) was “down-regulated”. The “adverse effects on blood chemistry including liver and renal panels” value (leiomyoma explants [7]; plasma) was “no adverse effects”, the ratio of kynurenine/tryptophan (leiomyoma explants [7]; plasma) was “decreased” and the “deposition of collagens, keratin and cytoplasm, Masson's Trichrome staining” value (leiomyoma explants [7]; xenograft explants) was “less deposition”.

With `Nc1ccccc1C(=O)CC(N)C(=O)O` (stereo not drawn) [kynurenine] the “expression of CYP1B1” value (leiomyoma explants [5]) was “increased”, the “expression of AhR” value (LSMC spheroids [8]) was “increase” and the “expression of COL1A1” value (LSMC spheroids [8]) was “increase”. The “expression of IDO1” value (LSMC spheroids [8]) was “increase” and the “expression of TDO2” value (LSMC spheroids [8]) was “increase”.

With `N[C@@H](Cc1c[nH]c2ccccc12)C(=O)O` [tryptophan] the “expression of CYP1B1” value (leiomyoma explants [5]) was “increased”.
